Data on one compound can be found in BindingDB's records for PubMed 39149111 (Cairo University).

The target of the assay is Prostaglandin G/H synthase 2 (Ovis aries) (UniProt P79208). Nature of the assay: Inhibition of ovine COX-2 using arachidonic acid as substrate preincubated for 5 mins followed by substrate addition.
Sequence of Prostaglandin G/H synthase 2 (Ovis aries) (P79208 whole entry, looked up): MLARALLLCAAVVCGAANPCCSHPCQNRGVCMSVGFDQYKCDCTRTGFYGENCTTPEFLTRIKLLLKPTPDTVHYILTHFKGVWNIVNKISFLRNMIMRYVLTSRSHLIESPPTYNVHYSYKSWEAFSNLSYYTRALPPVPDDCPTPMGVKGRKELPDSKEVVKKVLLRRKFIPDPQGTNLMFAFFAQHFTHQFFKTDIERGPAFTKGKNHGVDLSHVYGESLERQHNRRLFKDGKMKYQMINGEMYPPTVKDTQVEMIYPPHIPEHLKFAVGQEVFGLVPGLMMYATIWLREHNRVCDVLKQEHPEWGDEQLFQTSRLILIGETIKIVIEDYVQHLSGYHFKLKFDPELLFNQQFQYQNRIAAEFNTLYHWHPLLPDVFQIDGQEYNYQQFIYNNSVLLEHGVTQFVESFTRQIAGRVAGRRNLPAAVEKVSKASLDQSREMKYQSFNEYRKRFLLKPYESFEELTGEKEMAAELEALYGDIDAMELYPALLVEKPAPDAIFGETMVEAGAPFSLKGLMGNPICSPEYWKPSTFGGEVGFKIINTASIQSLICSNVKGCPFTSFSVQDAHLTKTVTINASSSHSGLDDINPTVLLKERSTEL

`O=C1NNC(N=CCc2ccc([N+](=O)[O-])cc2)C1=NNc1ccc(-c2nc3ccccc3o2)cc1` (stereo unspecified): the half-inhibitory concentration (IC50) stood at 560 nM.

Broadly, the IC50 is the point on the concentration scale where inhibition reaches its midpoint. A low value points to greater potency in that assay.
